US8183387B2, “Phenylpyrazole derivatives” (Taisho Pharmaceutical Co., Ltd, priority 2007, dated 2012)

Biological target: human H3 receptor (Homo sapiens, UniProt Q9Y5N1)
Assay: H3 receptor binding test (R(−)-α-methyl[3H]histamine)
Parameters: purchased Euroscreen ES-392-M; host or cells: CHO-K1
Settings: inhibition of R(−)-α-methyl[3H]histamine (2 nM) binding, membrane of human H3 receptor-expressing CHO-K1 cells
Method: A membrane preparation of human H3 receptor-expressing CHO-K1 cells (Euroscreen, ES-392-M, 15 μg protein/200 μl), R(−)-α-methyl[^3H]histamine (Amersham, TRK-1017, specific activity: 1.74 TBq/mmol, 2 nM) and a test drug were reacted at room temperature for 1 hour. After completion of the reaction, the reaction mixture was subjected to suction filtration through a 0.3% polyethyleneimine-treated glass filter (GF/C). The glass filter was washed five times with 50 mM Tris-HCl washing solution (pH 7.4) containing 5 mM EDTA. After washing, the glass filter was dried and a scintillator was added thereto, followed by measurement of radioactivity on the filter using a liquid scintillation counter.
A fixed concentration (2 nM) of R(−)-α-methyl[^3H]histamine was reacted under the above conditions with each test drug at various concentrations to obtain an inhibition curve.

Sequence of human H3 receptor (Q9Y5N1 whole entry): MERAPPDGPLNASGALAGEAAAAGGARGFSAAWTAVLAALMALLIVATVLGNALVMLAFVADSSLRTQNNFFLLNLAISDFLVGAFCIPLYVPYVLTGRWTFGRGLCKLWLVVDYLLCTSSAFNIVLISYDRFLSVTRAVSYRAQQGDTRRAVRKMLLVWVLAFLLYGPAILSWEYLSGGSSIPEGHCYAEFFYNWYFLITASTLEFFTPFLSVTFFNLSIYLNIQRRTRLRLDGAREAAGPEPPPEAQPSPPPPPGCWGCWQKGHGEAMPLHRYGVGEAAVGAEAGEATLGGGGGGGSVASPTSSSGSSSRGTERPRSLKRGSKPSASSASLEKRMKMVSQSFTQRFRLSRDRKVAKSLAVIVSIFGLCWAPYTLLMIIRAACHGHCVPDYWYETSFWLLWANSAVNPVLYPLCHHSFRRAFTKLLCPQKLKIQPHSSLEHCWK

| SMILES | IC50 [nM] |
| --- | --- |
| C[C@@H]1CCCN1CCCOc1ccc(-n2cc(C(N)=O)cn2)cc1 [Example 2, 1-(4-{3-[(2R)-2-methylpyrrolidin-1-yl]propoxy}phenyl)-1H-pyrazole-4-carboxamide] | 6.5 |
| C[C@@H]1CCCN1CCCOc1ccc(-n2cc(C(=O)N3CCOC(O)C3)cn2)cc1 (stereo partly drawn) [Example 65, (2-hydroxymorpholin-4-yl)[1-(4-{3-[(2R)-2-methylpyrrolidin-1-yl]propoxy}phenyl)-1H-pyrazol-4-yl]methanone] | 5.9 |
| CC1CCCN1CCCOc1ccc(-n2cc(NC(=O)c3ccc(C#N)cc3)cn2)cc1 (stereo not shown) [Example 40, 4-cyano-N-(1-{4-[3-(2-methylpyrrolidin-1-yl)propoxy]phenyl}-1H-pyrazol-4-yl)benzamide] | 4.4 |
| O=C(c1cnn(-c2ccc(OCCCN3CCCC3)cc2)c1)N1CCOCC1 [Example 8, 4-({1-[4-(3-pyrrolidin-1-ylpropoxy)phenyl]-1H-pyrazol-4-yl}carbonyl)morpholine] | 24.2 |
| C[C@@H]1CN(C(=O)c2cnn(-c3ccc(OCCCN4CCC[C@H]4C)cc3)c2)C[C@H](C)O1 [Example 53, (2,6-dimethylmorpholin-4-yl)[1-(4-{3-[(2R)-2-methylpyrrolidin-1-yl]propoxy}phenyl)-1H-pyrazol-4-yl]methanone] | 6.1 |
| CCOC(=O)c1cnn(-c2ccc(OCCCN3CCC[C@H]3C)cc2)c1 [Example 1, 1-(4-{3-[(2R)-2-methylpyrrolidin-1-yl]propoxy}phenyl)-1H-pyrazole-4-carboxylic acid ethyl ester] | 24 |
| C[C@@H]1CCCN1CCCOc1ccc(-n2cc(NC(=O)Cc3cccnc3)cn2)cc1 [Example 46, N-[1-(4-{3-[(2R)-2-methylpyrrolidin-1-yl]propoxy}phenyl)-1H-pyrazol-4-yl]-2-(pyridin-3-yl)acetamide] | 1.4 |
| C[C@H]1CCCN1CCCOc1ccc(-n2cc(C(N)=O)cn2)cc1 [Example 4, 1-(4-{3-[(2S)-2-methylpyrrolidin-1-yl]propoxy}phenyl)-1H-pyrazole-4-carboxamide] | 33 |
| CC(=O)N(C)c1cnn(-c2ccc(OCCCN3CCC[C@H]3C)cc2)c1 [Example 38, N-methyl-N-[1-(4-{3-[(2R)-2-methylpyrrolidin-1-yl]propoxy}phenyl)-1H-pyrazol-4-yl]acetamide] | 0.9 |
| C[C@@H]1CCCN1CCCOc1ccc(-n2cc(C(=O)c3ccccc3)cn2)cc1 [Example 24, [1-(4-{3-[(2R)-2-methylpyrrolidin-1-yl]propoxy}phenyl)-1H-pyrazol-4-yl](phenyl)methanone] | 3.3 |
| C[C@@H]1CCCN1CCCOc1ccc(-n2cc(C(=O)N(CCO)CC(=O)O)cn2)cc1 [Example 68, N-(2-hydroxyethyl)-N-{[1-(4-{3-[(2R)-2-methylpyrrolidin-1-yl]propoxy}phenyl)-1H-pyrazol-4-yl]carbonyl}glycine] | 74.8 |
| CCN(CC)CCCOc1ccc(-n2cc(C(=O)NC(C)(C)C)cn2)cc1 [Example 14, N-tert-butyl-1-{4-[3-(diethylamino)propoxy]phenyl}-1H-pyrazole-4-carboxamide] | 13.5 |
| CC(=O)c1cnn(-c2ccc(OCCCN3CCC[C@H]3C)cc2)c1 [Example 27, 1-[1-(4-{3-[(2R)-2-methylpyrrolidin-1-yl]propoxy}phenyl)-1H-pyrazol-4-yl]ethanone] | 1.6 |
| C[C@H]1CCCN1CCCOc1ccc(-n2cc(C#N)cn2)cc1 [Example 5, 1-(4-{3-[(2S)-2-methylpyrrolidin-1-yl]propoxy}phenyl)-1H-pyrazole-4-carbonitrile] | 10.8 |
| CC1CCCN1CCCOc1ccc(-n2cc(C(=O)Nc3ccc(F)cc3)cn2)cc1 (stereo not shown) [Example 15, N-(4-fluorophenyl)-1-{4-[3-(2-methylpyrrolidin-1-yl)propoxy]phenyl}-1H-pyrazole-4-carboxamide] | 1.8 |
| O=C(Nc1ccc(F)cc1)c1cnn(-c2ccc(OCCCN3CCCC3)cc2)c1 [Example 16, N-(4-fluorophenyl)-1-[4-(3-pyrrolidin-1-ylpropoxy)phenyl]-1H-pyrazole-4-carboxamide] | 5.9 |
| CCN(C(C)=O)c1cnn(-c2ccc(OCCCN3CCCC3C)cc2)c1 (stereo not shown) [Example 39, N-ethyl-N-(1-{4-[3-(2-methylpyrrolidin-1-yl)propoxy]phenyl}-1H-pyrazol-4-yl)acetamide] | 3.5 |
| C[C@@H]1CCCN1CCCOc1ccc(-n2cc(NC(=O)Cc3ccc(O)cc3)cn2)cc1 [Example 45, 2-(4-hydroxyphenyl)-N-[1-(4-{3-[(2R)-2-methylpyrrolidin-1-yl]propoxy}phenyl)-1H-pyrazol-4-yl]acetamide] | 1.1 |
| COc1ccc(C(=O)Nc2cnn(-c3ccc(OCCCN4CCCC4C)cc3)c2)cc1 (stereo not shown) [Example 41, 4-methoxy-N-(1-{4-[3-(2-methylpyrrolidin-1-yl)propoxy]phenyl}-1H-pyrazol-4-yl)benzamide] | 2.1 |

| SMILES | IC50 [nM] |
| --- | --- |
| CC1CCCN1CCCOc1ccc(-n2cc(NS(=O)(=O)c3ccc(C#N)cc3)cn2)cc1 (stereo not shown) [Example 50, 4-cyano-N-(1-{4-[3-(2-methylpyrrolidin-1-yl)propoxy]phenyl}-1H-pyrazol-4-yl)benzenesulfonamide] | 31.9 |
| CC1CCCN1CCCOc1ccc(-n2cc(C(=O)NCc3ccc(F)cc3)cn2)cc1 (stereo not shown) [Example 18, 1-{4-[3-(2-methylpyrrolidin-1-yl)-propoxy]-phenyl}-1H-pyrazole-4-carboxylic acid 4-fluorobenzylamide] | 3 |
| C[C@@H]1CCCN1CCCOc1ccc(-n2cc(C(=O)N(CCO)CCO)cn2)cc1 [Example 20, 1-(4-{3-[(2R)-2-methylpyrrolidin-1-yl]propoxy}phenyl)-1H-pyrazole-4-carboxylic acid bis-(2-hydroxyethyl)-amide] | 6.9 |
| CCC1CCCN1CCCOc1ccc(-n2cc(C(=O)N3CCOCC3)cn2)cc1 (stereo not shown) [Example 58, (1-{4-[3-(2-ethylpyrrolidin-1-yl)propoxy]phenyl}-1H-pyrazol-4-yl)(morpholin-4-yl)methanone] | 8.7 |
| CC(=O)Nc1cnn(-c2ccc(OCCCN3CCC[C@H]3C)cc2)c1 [Example 37, N-[1-(4-{3-[(2R)-2-methylpyrrolidin-1-yl]propoxy}phenyl)-1H-pyrazol-4-yl]acetamide] | 2.1 |
| C[C@@H]1CCCN1CCCOc1ccc(-n2cc(N(C)S(C)(=O)=O)cn2)cc1 [Example 49, N-methyl-N-[1-(4-{3-[(2R)-2-methylpyrrolidin-1-yl]propoxy}phenyl)-1H-pyrazol-4-yl]methanesulfonamide] | 3.1 |
| C[C@@H]1CCCN1CCCOc1ccc(-n2cc(NC(=O)Cc3ccncc3)cn2)cc1 [Example 47, N-[1-(4-{3-[(2R)-2-methylpyrrolidin-1-yl]propoxy}phenyl)-1H-pyrazol-4-yl]-2-(pyridin-4-yl)acetamide] | 1.5 |
| CC1CCN(CCCOc2ccc(-n3cc(C(=O)N4CCOCC4)cn3)cc2)C1 (stereo not shown) [Example 57, (1-{4-[3-(3-methylpyrrolidin-1-yl)propoxy]phenyl}-1H-pyrazol-4-yl)(morpholin-4-yl)methanone] | 50.7 |
| C[C@@H]1CCCN1CCCOc1ccc(-n2cc(C(=O)N3CCOCC3)cn2)cc1Br [Example 64, [1-(3-bromo-4-{3-[(2R)-2-methylpyrrolidin-1-yl]propoxy}phenyl)-1H-pyrazol-4-yl](morpholin-4-yl)methanone] | 10 |
| O=C1CCCN1c1cnn(-c2ccc(OCCCN3CCCC3)cc2)c1 [Example 32, 1-{1-[4-(3-pyrrolidin-1-ylpropoxy)phenyl]-1H-pyrazol-4-yl}pyrrolidine-2-one] | 8.3 |
| CC(C)(C)NC(=O)c1cnn(-c2ccc(OCCCN3CCCC3)cc2)c1 [Example 13, N-tert-butyl-1-[4-(3-pyrrolidin-1-ylpropoxy)phenyl]-1H-pyrazole-4-carboxamide] | 6.1 |
| CC1CCCN1CCCOc1ccc(-n2cc(N3CCOC3=O)cn2)cc1 (stereo not shown) [Example 34, 3-(1-{4-[3-(2-methylpyrrolidin-1-yl)propoxy]phenyl}-1H-pyrazol-4-yl)-1,3-oxazolidin-2-one] | 2.1 |
| O=C(c1cnn(-c2ccc(OCCCN3CCCC3(F)F)cc2)c1)N1CCOCC1 [Example 59, (1-{4-[3-(2,2-difluoropyrrolidin-1-yl)propoxy]phenyl}-1H-pyrazol-4-yl)(morpholin-4-yl)methanone] | 1180 |
| Cc1cc(OCCCN2CCC[C@H]2C)ccc1-n1cc(C(=O)N2CCOCC2)cn1 [Example 63, [1-(2-methyl-4-{3-[(2R)-2-methylpyrrolidin-1-yl]propoxy}phenyl)-1H-pyrazol-4-yl](morpholin-4-yl)methanone] | 20.7 |
| C[C@@H]1CCCN1CCCOc1ccc(-n2cc(NC(=O)c3ccncc3)cn2)cc1 [Example 44, N-[1-(4-{3-[(2R)-2-methylpyrrolidin-1-yl]propoxy}phenyl)-1H-pyrazol-4-yl]pyridine-4-carboxamide] | 0.8 |
| C[C@H]1CCCN1CCCOc1ccc(-n2cc(N3CCCC3=O)cn2)cc1 [Example 31, 1-[1-(4-{3-[(2S)-2-methylpyrrolidin-1-yl]propoxy}phenyl)-1H-pyrazol-4-yl]pyrrolidine-2-one] | 5.1 |
| C[C@@H]1CCCN1CCCOc1ccc(-n2cc(C(=O)c3ccc(F)cc3)cn2)cc1 [Example 23, (4-fluorophenyl)[1-(4-{3-[(2R)-2-methylpyrrolidin-1-yl]propoxy}phenyl)-1H-pyrazol-4-yl]methanone] | 2.2 |
| CC1CCCN1CCCOc1ccc(-n2cc(C(=O)N3CCC3)cn2)cc1 (stereo not shown) [Example 21, azetidin-1-yl-(1-{4-[3-(2-methylpyrrolidin-1-yl)propoxy]phenyl}-1H-pyrazol-4-yl)methanone] | 5.7 |
